Our source for the EC50 values is patent publication EP4563146A1 (IRBM S.P.A., priority 2023, dated 2025).

The experiment deals with ZIKV replicon. Description: ZIKV replication inhibition assay (NanoLuc replicon in Vero cells). The conditions noted are these: Zika virus, Vero, 72 h. Background: In antiviral work, replicon cells carry a viral genome segment that copies itself.
The mark [1] stands for this setting: read-out: ZIKA Cell_Nanoluc, Vero cells with stable ZIKV replicon, 72 h, Nano-Glo readout.

SMILES strings stand for the structures. Where two headings read alike, the source gives them in different places.

With `O=C(Cc1ccccc1)Nc1cc(NC(=O)[N-]c2c[n+](C3CCNCC3)no2)cc(C(F)(F)F)c1` [Example 99, ((3-(2-Phenylacetamido)-5-(trifluoromethyl)-phenyl)carbamoyl)(3-(piperidin-4-yl)-1,2,3-oxadiazol-3-ium-5-yl)amide], the EC50 under setting [1] fell in the range of 1000 to 20000 nM.
Regarding `COC(=O)c1ccc(C[n+]2cc([N-]C(=O)Nc3cc(NC(=O)Cc4ccccc4)cc(C(F)(F)F)c3)on2)nc1` [Example 113, (3-((5-(Methoxycarbonyl)pyridin-2-yl)methyl)-1,2,3-oxadiazol-3-ium-5-yl)((3-(2-phenylacetamido)-5-(trifluoromethyl)phenyl)carbamoyl)amide], the EC50 under setting [1] is 1000 to 20000 nM.
Still for that read-out and setting: to `COC(=O)c1ccc(C[n+]2cc([N-]C(=O)Nc3cc(NC(=O)Cc4ccccc4)cc(C4CC4)c3)on2)nc1` [Example 128, ((3-Cyclopropyl-5-(2-phenylacetamido)phenyl)-carbamoyl)(3-((5-(methoxycarbonyl)pyridin-2-yl)methyl)-1,2,3-oxadiazol-3-ium-5-yl)amide] belongs 1000 to 20000 nM; to `O=C([N-]c1c[n+](Cc2ccccn2)no1)Nc1cc(NC(=O)C2CCn3cncc3C2)cc(C(F)(F)F)c1` (stereo not drawn) [Example 80, (3-(Pyridin-2-ylmethyl)-1,2,3-oxadiazol-3-ium-5-yl)((3-(5,6,7,8-tetrahydroimidazo [1,5-a]pyridine-7-carboxamido)-5-(trifluoromethyl)phenyl)carbamoyl)amide], over 20000 nM; to `C[n+]1cc([N-]C(=O)Nc2cc(NC(=O)Cc3ccccc3)cc(C(F)(F)F)c2)on1` [Example 4, (3-Methyl-1,2,3-oxadiazol-3-ium-5-yl)((3-(2-phenylacetamido)-5-(trifluoromethyl)phenyl)carbamoyl)amide], 1000 to 20000 nM.
In the case of `O=C(Cc1ccccc1)Nc1cc(NC(=O)[N-]c2c[n+](CC3CCN(CCO)CC3)no2)cc(C(F)(F)F)c1` [Example 141, (3-((1-(2-Hydroxyethyl)piperidin-4-yl)methyl)-1,2,3-oxadiazol-3-ium-5-yl)((3-(2-phenylacetamido)-5-(trifluoromethyl)phenyl)-carbamoyl)amide], the EC50 under setting [1] lay within 1000 to 20000 nM.
As for `O=C([N-]c1c[n+](Cc2ccccn2)no1)Nc1cc(NC(=O)C2CS(=O)(=O)CCO2)cc(C(F)(F)F)c1` (stereo not drawn) [Example 88], for the setting “read-out: ZIKA Cell_Nanoluc”, the EC50 was over 20000 nM.
Regarding `COc1ncc(-c2ccc(C[n+]3cc([N-]C(=O)Nc4cc(N)cc(C(F)(F)F)c4)on3)cc2)c(C)n1` [Example 3, ((3-Amino-5-(trifluoromethyl)phenyl)carbamoyl)(3-(4-(2-methoxy-4-methylpyrimidin-5-yl)benzyl)-1,2,3-oxadiazol-3-ium-5-yl)amide], under setting [1], the EC50 was in the range of 100 to 1000 nM.
For `N[C@H]1CC[C@H](C[n+]2cc([N-]C(=O)Nc3cc(N4CCC(c5ccccc5)C4=O)cc(C(F)(F)F)c3)on2)CC1` (stereo partly drawn) [Example 132, (3-(((1R,4R)-4-Aminocyclohexyl)methyl)-1,2,3-oxadiazol-3-ium-5-yl)((3-(2-oxo-3-phenylpyrrolidin-1-yl)-5-(trifluoromethyl)-phenyl)carbamoyl)amide], the EC50 (read-out: ZIKA Cell_Nanoluc) was over 20000 nM.
As for `O=C(Cc1ccccc1)Nc1cc(NC(=O)[N-]c2c[n+](Cc3ccccn3)no2)cc(C(F)(F)F)c1` [Example 7, ((3-(2-Phenylacetamido)-5-(trifluoromethyl)phenyl)carbamoyl)(3-(pyridin-2-ylmethyl)-1,2,3-oxadiazol-3-ium-5-yl)amide], under setting [1], the EC50 fell in the range of 100 to 1000 nM.
In the case of `O=C([N-]c1c[n+](Cc2ccccn2)no1)Nc1cc(NC(=O)C(F)(F)CN2CCCC2)cc(C(F)(F)F)c1` [Example 76], the EC50 (read-out: ZIKA Cell_Nanoluc) is over 20000 nM.
Turning to `COc1ncc(-c2ccc(C[n+]3cc([N-]C(=O)Nc4cc(NC(=O)Cc5cccnc5)cc(C(F)(F)F)c4)on3)cc2)c(C)n1` [Example 19, (3-(4-(2-Methoxy-4-methylpyrimidin-5-yl)benzyl)-1,2,3-oxadiazol-3-ium-5-yl)((3-(2-(pyridin-3-yl)acetamido)-5-(trifluoromethyl)phenyl)carbamoyl)amide], the EC50 under setting [1] is 1000 to 20000 nM.
Take `O=C([N-]c1c[n+](C[C@H]2CC[C@H](NC(=O)C(F)(F)F)CC2)no1)Nc1cc(N2CC[C@H](c3ccccc3)C2=O)cc(C(F)(F)F)c1` [Example 145, ((3-((R)-2-Oxo-3-phenylpyrrolidin-1-yl)-5-(trifluoromethyl)phenyl)carbamoyl)(3-(((1R,4R)-4-(2,2,2-trifluoroacetamido)cyclohexyl)methyl)-1,2,3-oxadiazol-3-ium-5-yl)amide]: where the note is “read-out: ZIKA Cell_Nanoluc”, the EC50 is 1000 to 20000 nM.
On to `CN1CCCCC1C[n+]1cc([N-]C(=O)Nc2cc(NC(=O)Cc3ccccc3)cc(C(F)(F)F)c2)on1` (stereo not drawn) [Example 105, (3-((1-Methylpiperidin-2-yl)methyl)-1,2,3-oxadiazol-3-ium-5-yl)((3-(2-phenylacetamido)-5-(trifluoromethyl)phenyl)carbamoyl)amide], for which the EC50 under setting [1] was in the range of 100 to 1000 nM.
Take `CN1CCC([n+]2cc([N-]C(=O)Nc3cc(NC(=O)Cc4ccccc4)cc(C(F)(F)F)c3)on2)CC1` [Example 100, (3-(1-Methylpiperidin-4-yl)-1,2,3-oxadiazol-3-ium-5-yl)((3-(2-phenylacetamido)-5-(trifluoromethyl)phenyl)carbamoyl)amide]: the EC50 under setting [1] fell in the range of 1000 to 20000 nM.
On to `O=C(Cc1ccccc1)Nc1cc(NC(=O)[N-]c2c[n+](Cc3ccc(C(=O)O)cc3)no2)cc(C(F)(F)F)c1` [Example 101, (3-(4-Carboxybenzyl)-1,2,3-oxadiazol-3-ium-5-yl)((3-(2-phenylacetamido)-5-(trifluoromethyl)phenyl)carbamoyl)amide], for which, under setting [1], the EC50 is over 20000 nM.
For `NCc1ccc(CC(=O)Nc2cc(NC(=O)[N-]c3c[n+](Cc4ccccn4)no3)cc(C(F)(F)F)c2)cc1` [Example 27, ((3-(2-(4-(Aminomethyl)phenyl)acetamido)-5-(trifluoromethyl)phenyl)carbamoyl)(3-(pyridin-2-ylmethyl)-1,2,3-oxadiazol-3-ium-5-yl)amide], the EC50 under setting [1] lay in the range of 1000 to 20000 nM.
As for `O=C([N-]c1c[n+](Cc2ccccn2)no1)Nc1cc(NC(=O)C23CCC(O)(CC2)C3)cc(C(F)(F)F)c1` [Example 66], the EC50 (read-out: ZIKA Cell_Nanoluc) is over 20000 nM.
Regarding `Cn1cncc1-c1ccc(C[n+]2cc([N-]C(=O)Nc3cc(NC(=O)Cc4ccccc4)cc(C(F)(F)F)c3)on2)nc1` [Example 6, (3-((5-(1-Methyl-1H-imidazol-5-yl)pyridin-2-yl)methyl)-1,2,3-oxadiazol-3-ium-5-yl)((3-(2-phenylacetamido)-5-(trifluoromethyl)phenyl)carbamoyl)amide], under setting [1], the EC50 lay in the range of 1000 to 20000 nM.
On the same count and under the same terms, to `O=C([N-]c1c[n+](Cc2ccccn2)no1)Nc1cc(N2CC(c3ccccc3)CC2=O)cc(C(F)(F)F)c1` (stereo not drawn) [Example 122, ((3-(2-Oxo-4-phenylpyrrolidin-1-yl)-5-(trifluoromethyl)phenyl)carbamoyl)(3-(pyridin-2-ylmethyl)-1,2,3-oxadiazol-3-ium-5-yl)amide] belongs 1000 to 20000 nM.
Turning to `O=C(Cc1c[nH]c2cccnc12)Nc1cc(NC(=O)[N-]c2c[n+](Cc3ccccn3)no2)cc(C(F)(F)F)c1` [Example 36], the EC50 (read-out: ZIKA Cell_Nanoluc) is 1000 to 20000 nM.
As for `Cc1noc(C)c1-c1ccc([C@@H](CN)[n+]2cc([N-]C(=O)Nc3cc(NC(=O)Cc4ccccc4)cc(C(F)(F)F)c3)on2)cc1` [Example 24, (S)-(3-(2-Amino-1-(4-(3,5-dimethylisoxazol-4-yl)phenyl)ethyl)-1,2,3-oxadiazol-3-ium-5-yl)((3-(2-phenylacetamido)-5-(trifluoromethyl)phenyl)carbamoyl)amide], under setting [1], the EC50 is 1000 to 20000 nM.
In the case of `CN(CC(F)(F)F)[C@H]1CC[C@H](C[n+]2cc([N-]C(=O)Nc3cc(N4CC[C@H](c5ccccc5)C4=O)cc(C(F)(F)F)c3)on2)CC1` [Example 146, (3-(((1R,4R)-4-(Methyl(2,2,2-trifluoroethyl)-amino)cyclohexyl)methyl)-1,2,3-oxadiazol-3-ium-5-yl)((3-((R)-2-oxo-3-phenylpyrrolidin-1-yl)-5-(trifluoromethyl)phenyl)carbamoyl)amide], under “read-out: ZIKA Cell_Nanoluc”, the EC50 lay in the range of 100 to 1000 nM.
For the compound `COc1ccc(CC(=O)Nc2cc(NC(=O)[N-]c3c[n+](Cc4ccc(-c5cnc(OC)nc5C)cc4)no3)cc(C(F)(F)F)c2)cc1` [Example 16, (3-(4-(2-Methoxy-4-methylpyrimidin-5-yl)benzyl)-1,2,3-oxadiazol-3-ium-5-yl)((3-(2-(4-methoxyphenyl)acetamido)-5-(trifluoromethyl)phenyl)carbamoyl)amide], the EC50 under setting [1] is 1000 to 20000 nM.
On the same count and under the same terms, to `O=C(Cc1ccccc1)Nc1cc(NC(=O)[N-]c2c[n+](Cc3ccc(Br)cn3)no2)cc(C(F)(F)F)c1` [Example 12, (3-((5-Bromopyridin-2-yl)methyl)-1,2,3-oxadiazol-3-ium-5-yl)((3-(2-phenylacetamido)-5-(trifluoromethyl)phenyl)carbamoyl)amide] belongs 100 to 1000 nM.
Take `O=C([N-]c1c[n+](Cc2ccccn2)no1)Nc1cc(NC(=O)c2ccc3c(n2)CCO3)cc(C(F)(F)F)c1` [Example 79]: the EC50 (read-out: ZIKA Cell_Nanoluc) lay in the range of 1000 to 20000 nM.
`O=C(Cc1ccccc1)Nc1cc(NC(=O)[N-]c2c[n+](CC3CC(NCc4ccc(O)cn4)C3)no2)cc(C(F)(F)F)c1` (stereo not drawn) [Example 134, (3-((3-(((5-Hydroxypyridin-2-yl)methyl)amino)-cyclobutyl)methyl)-1,2,3-oxadiazol-3-ium-5-yl)((3-(2-phenylacetamido)-5-(trifluoromethyl)-phenyl)carbamoyl)amide]: the EC50 under setting [1] is over 20000 nM.
For the compound `CC(C)n1ccc(C(=O)Nc2cc(NC(=O)[N-]c3c[n+](Cc4ccccn4)no3)cc(C(F)(F)F)c2)n1` [Example 48], the EC50 (read-out: ZIKA Cell_Nanoluc) was in the range of 1000 to 20000 nM.
Consider `O=C(CCCCS(=O)(=O)N1CCCCC1)Nc1cc(NC(=O)[N-]c2c[n+](Cc3ccccn3)no2)cc(C(F)(F)F)c1` [Example 82], for which the EC50 (read-out: ZIKA Cell_Nanoluc) is over 20000 nM.
With `O=C([N-]c1c[n+](Cc2ccccn2)no1)Nc1cc(NC(=O)c2[nH]cc3c2CCC3)cc(C(F)(F)F)c1` [Example 87, (3-(Pyridin-2-ylmethyl)-1,2,3-oxadiazol-3-ium-5-yl)((3-(2,4,5,6-tetrahydrocyclopenta[c]pyrrole-1-carboxamido)-5-(trifluoromethyl)phenyl)-carbamoyl)amide], under setting [1], the EC50 was over 20000 nM.
